# Experimental data published in patent publication US20250351832A1, “PHYTOCHEMICALS AS BIOPESTICIDES AND BIOSTIMULANTS” (KAY BEE BIO ORGANICS PVT. LTD., priority 2024, published 2025).
# Read-outs that look alike come from different tables or passages of the source.
# Columns and labels:
# Alternaria alternata [1] = test: In vitro poisoned food technique against fungus (Ex. 20); format: cell-based; settings: poisoned food technique, PDA medium, dose 1 ml/gm/lit., after seven days; for inhibition of growth at 1 mL or g/L: vs untreated control, read-out: % Inhibition of growth
# Alternaria alternata [2] = test: Alternaria leaf spot/blight on inoculated tomato plants (Ex. 28); format: in vivo; settings: tomato plants, Alternaria alternata; after 7 days; dose 1 ml/gm/lit
# tomato seedlings = test: Response of tomato plants, greenhouse growth (Ex. 30); format: in vivo; settings: tomato seedlings, dose 1 ml/gm/lit; for Plant Height 5th Day / Stem Girth 5th Day / CCI 5th Day: 5th day after application; for Plant Height 10th Day / Stem Girth 10th Day / CCI 10th Day: 10th day after application; for Plant Height % Increase over pre on 10th Day / Stem Girth % Increase over pre on 10th Day / CCI % Increase over pre on 10th Day / Root Length (cm) 10th Day / Root Length % Increase over control: 10th day; for Root Length % Increase over control: vs water control
# chili seedlings = test: Response of chili plants, greenhouse growth (Ex. 31); format: in vivo; settings: chili seedlings, dose 1 ml/gm/lit; for CCI 5th Day / Plant Height (cm) 5th Day: 5th day after application; for CCI 10th Day / Plant Height (cm) 10th Day: 10th day after application; for CCI % Increase over pre on 10th Day / Plant Height % Increase over pre on 10th Day / Root Lenght (cm) 10th Day / Stem Girth % Increase over pre on 10th Day / Root Lenght % Increase over control: 10th day; for Root Lenght % Increase over control: vs water control
# Aphid [3] = settings: Dose 1 ml/gm/lit.; for Total No. of dead insect at 48 Hrs.: 10 insects/treatment, 4 replications, cotton leaves
# Mite [4] = settings: Dose 1 ml/gm/lit.; for Total No. of dead insect at 48 Hrs.: 10 insects/treatment, 4 replications, okra leaves
# Mealy Bug [5] = settings: Mealy Bug on cotton leaves, dose 1 ml/gm/lit., 48 Hrs.; for Total No. of dead insect at 48 Hrs.: 10 insects/treatment, 4 replications; for % Corrected Mortality at 48 Hrs.: corrected for water control
# Helicoverpa armigera [6] = settings: Helicoverpa armigera on okra fruits, dose 1 ml/gm/lit., 72 Hrs.; for Total No. of dead insect at 72 Hrs.: 10 insects/treatment, 4 replications; for % Corrected Mortality at 72 Hrs.: corrected for water control
# Spodoptera litura [7] = settings: Spodoptera litura on castor leaves; dose 1 ml/gm/lit.; 10 insects/treatment; 72 hrs after application
# Thrips [8] = settings: Thrips on cotton leaves; dose 1 ml/gm/lit.; 10 insects/treatment; 48 hrs after application
# Aphid [9] = settings: Aphids on cotton plants, green house; dose 1 ml/gm/lit.; 10 insects/plant, 10 plants/treatment; 48 hrs
# Mite [10] = settings: mite on okra plants, green house, dose 1 ml/gm/lit. spray; for % Mortality at 48 Hrs. / Total No. of dead insect at 48 Hrs.: 48 hrs after application; for % Corrected Mortality at 48 Hrs.: corrected for water control
# Mealy Bug [11] = settings: mealy bug on cotton plants, green house, dose 1 ml/gm/lit. spray; for % Mortality at 48 Hrs. / Total No. of dead insect at 48 Hrs.: 48 hrs after application; for % Corrected Mortality at 48 Hrs.: corrected for water control
# Helicoverpa armigera [12] = settings: Helicoverpa armigera 3rd instar on chickpea plants, dose 1 ml/gm/lit. spray; for % Mortality at 72 Hrs.: 72 hrs after application; for % Corrected Mortality at 72 Hrs.: corrected for water control
# Spodoptera litura [13] = settings: Spodoptera litura 3rd instar on cabbage plants, dose 1 ml/gm/lit. spray; for % Mortality at 72 Hrs.: 72 hrs after application; for % Corrected Mortality at 72 Hrs.: corrected for water control
# Thrips [14] = settings: thrips on cotton plants, greenhouse, dose 1 ml/gm/lit. spray; for % Mortality at 48 Hrs. / Total No. of dead insect at 48 Hrs.: 48 hrs after application; for % Corrected Mortality at 48 Hrs.: corrected for water control
# [15] = cited from earlier work
# Spodoptera litura [16] = test: whole plant or invertebrate; settings: 72 h
# Thrips [17] = test: whole plant or invertebrate; settings: in Gossypium hirsutum, 48 h
# Aphid [18] = test: whole plant or invertebrate; settings: 48 h
# [19] = Table 13, descriptive, no test described
# [20] = read-out: % Corrected Mortality at 72 Hrs.
# [21] = read-out: % Mortality at 72 Hrs.
# [22] = read-out: % Corrected Mortality at 48 Hrs.
# [23] = read-out: % Mortality at 48 Hrs.
structure (smiles),measurement,setting,value
O=c1oc2c(O)c(O)cc3c(=O)oc4c(O)c(O)cc1c4c23 [Ellagic acid],Mean colony Diameter (mm),Alternaria alternata [1],44.00 mm
same,inhibition of growth at 1 mL or g/L,Alternaria alternata [1],50%
same,% Disease reduction over Control,Alternaria alternata [2],66.12%
same,Plant Height 5th Day,tomato seedlings,7.09 cm
same,Stem Girth 5th Day,tomato seedlings,1.54 mm
same,Plant Height 10th Day,tomato seedlings,8.18 cm
same,Stem Girth 10th Day,tomato seedlings,2.19 mm
same,Plant Height % Increase over pre on 10th Day,tomato seedlings,36.11%
same,Stem Girth % Increase over pre on 10th Day,tomato seedlings,62.87%
same,CCI 5th Day,tomato seedlings,13.39
same,CCI % Increase over pre on 10th Day,tomato seedlings,28.96%
same,Root Length (cm) 10th Day,tomato seedlings,4.48 cm
same,CCI 10th Day,tomato seedlings,14.56
same,Root Length % Increase over control,tomato seedlings,34.64%
same,CCI 5th Day,chili seedlings,16.35
same,Plant Height (cm) 5th Day,chili seedlings,5.77 cm
same,CCI % Increase over pre on 10th Day,chili seedlings,67.49%
same,Plant Height % Increase over pre on 10th Day,chili seedlings,62.60%
same,Root Lenght (cm) 10th Day,chili seedlings,3.92 cm
same,Stem Girth % Increase over pre on 10th Day,chili seedlings,51.20%
same,CCI 10th Day,chili seedlings,16.95
same,Plant Height (cm) 10th Day,chili seedlings,6 cm
same,Root Lenght % Increase over control,chili seedlings,43.41%
same,Total No. of dead insect at 48 Hrs.,Aphid [3],7.25
same,% Corrected Mortality at 48 Hrs.,Aphid [3],68.57%
same,% Mortality at 48 Hrs.,Aphid [3],72.50%
same,Total No. of dead insect at 48 Hrs.,Mite [4],5.00
same,% Corrected Mortality at 48 Hrs.,Mite [4]; 48 hrs,45.95%
same,Total No. of dead insect at 48 Hrs.,Mealy Bug [5],6.00
same,% Mortality at 48 Hrs.,Mealy Bug [5],60.00%
same,% Corrected Mortality at 48 Hrs.,Mealy Bug [5],57.89%
same,Total No. of dead insect at 72 Hrs.,Helicoverpa armigera [6],7.25
same,% Mortality at 72 Hrs.,Helicoverpa armigera [6],72.50%
same,% Corrected Mortality at 72 Hrs.,Helicoverpa armigera [6],72.50%
same,Total No. of dead insect at 72 Hrs.,Spodoptera litura [7],6.00
same,Total No. of dead insect at 48 Hrs.,Thrips [8],3.50
same,Total No. of dead insect at 48 Hrs.,Aphid [9],75.00
same,% Mortality at 48 Hrs.,Mite [10],52.50%
same,Total No. of dead insect at 48 Hrs.,Mite [10],52.50
same,% Corrected Mortality at 48 Hrs.,Mite [10],50.00%
same,% Mortality at 48 Hrs.,Mealy Bug [11],57.50%
same,Total No. of dead insect at 48 Hrs.,Mealy Bug [11],57.50
same,% Corrected Mortality at 48 Hrs.,Mealy Bug [11],52.78%
same,% Mortality at 72 Hrs.,Helicoverpa armigera [12],70.00%
same,% Corrected Mortality at 72 Hrs.,Helicoverpa armigera [12],70.00%
same,% Mortality at 72 Hrs.,Spodoptera litura [13],55.00%
same,% Corrected Mortality at 72 Hrs.,Spodoptera litura [13],52.63%
same,% Mortality at 48 Hrs.,Thrips [14],32.50%
same,Total No. of dead insect at 48 Hrs.,Thrips [14],32.50
same,% Corrected Mortality at 48 Hrs.,Thrips [14],25.00%
same,Acaricidal Activity - Mode of action,[15]; [19],Shows acaricidal activities
same,Antifungal Activity - Mode of action,[15]; [19],Fungicidal activities
same,Antioxidant Activity - Mode of action,[15]; [19],Exhibit antioxidant
same,Bactericidal Activity - Mode of action,[15]; [19],Exhibits bactericidal
same,Insecticidal Activities - Mode of action,[15]; [19],"Inhibit the growth, food"
same,Phytotonic Effect,"[15]; Table 13, effect on plants, descriptive",Reduces plant
same,mortality at 1 mL or g/L,Spodoptera litura [16]; [20],57.9%
same,mortality at 1 mL or g/L,Spodoptera litura [16]; [21],60%
same,mortality at 1 mL or g/L,Thrips [17]; [22],25.7%
same,mortality at 1 mL or g/L,Thrips [17]; [23],35%
same,mortality at 1 mL or g/L,Aphid [18]; [22],70.6%
same,mortality at 1 mL or g/L,Aphid [18]; [23],75%
C=CCc1ccc(OC)cc1 [Methyl chavicol],Mean colony Diameter (mm),Alternaria alternata [1],54.00 mm
same,inhibition of growth at 1 mL or g/L,Alternaria alternata [1],38.6%
same,% Disease reduction over Control,Alternaria alternata [2],48.76%
same,Plant Height 5th Day,tomato seedlings,7.16 cm
same,Stem Girth 5th Day,tomato seedlings,1.50 mm
same,Plant Height 10th Day,tomato seedlings,7.86 cm
same,Stem Girth 10th Day,tomato seedlings,2.10 mm
same,Plant Height % Increase over pre on 10th Day,tomato seedlings,28.43%
same,Stem Girth % Increase over pre on 10th Day,tomato seedlings,55.56%
same,CCI 5th Day,tomato seedlings,14.23
same,CCI % Increase over pre on 10th Day,tomato seedlings,23.12%
same,Root Length (cm) 10th Day,tomato seedlings,4.13 cm
same,CCI 10th Day,tomato seedlings,15.23
same,Root Length % Increase over control,tomato seedlings,24.05%
same,CCI 5th Day,chili seedlings,12.70
same,Plant Height (cm) 5th Day,chili seedlings,5.97 cm
same,CCI % Increase over pre on 10th Day,chili seedlings,38.53%
same,Plant Height % Increase over pre on 10th Day,chili seedlings,44.42%
same,Root Lenght (cm) 10th Day,chili seedlings,3.11 cm
same,Stem Girth % Increase over pre on 10th Day,chili seedlings,45.91%
same,CCI 10th Day,chili seedlings,15.1
same,Plant Height (cm) 10th Day,chili seedlings,6.21 cm
same,Root Lenght % Increase over control,chili seedlings,13.83%
same,Total No. of dead insect at 48 Hrs.,Aphid [3],6.50
same,% Corrected Mortality at 48 Hrs.,Aphid [3],60.00%
same,% Mortality at 48 Hrs.,Aphid [3],65.00%
same,Total No. of dead insect at 48 Hrs.,Mite [4],4.50
same,% Corrected Mortality at 48 Hrs.,Mite [4]; 48 hrs,40.54%
same,% Mortality at 48 Hrs.,Mite [4]; 48 hrs,45.00%
same,Total No. of dead insect at 48 Hrs.,Mealy Bug [5],6.25
same,% Mortality at 48 Hrs.,Mealy Bug [5],62.50%
same,% Corrected Mortality at 48 Hrs.,Mealy Bug [5],60.53%
same,Total No. of dead insect at 72 Hrs.,Helicoverpa armigera [6],6.25
same,% Mortality at 72 Hrs.,Helicoverpa armigera [6],62.50%
same,% Corrected Mortality at 72 Hrs.,Helicoverpa armigera [6],62.50%
same,Total No. of dead insect at 72 Hrs.,Spodoptera litura [7],6.50
same,Total No. of dead insect at 48 Hrs.,Thrips [8],5.50
same,Total No. of dead insect at 48 Hrs.,Aphid [9],67.50
same,% Mortality at 48 Hrs.,Mite [10],42.50%
same,Total No. of dead insect at 48 Hrs.,Mite [10],42.50
same,% Corrected Mortality at 48 Hrs.,Mite [10],39.47%
same,% Mortality at 48 Hrs.,Mealy Bug [11],60.00%
same,Total No. of dead insect at 48 Hrs.,Mealy Bug [11],60.00
same,% Corrected Mortality at 48 Hrs.,Mealy Bug [11],55.56%
same,% Mortality at 72 Hrs.,Helicoverpa armigera [12],67.50%
same,% Corrected Mortality at 72 Hrs.,Helicoverpa armigera [12],67.50%
same,% Mortality at 72 Hrs.,Spodoptera litura [13],62.50%
same,% Corrected Mortality at 72 Hrs.,Spodoptera litura [13],60.53%
same,% Mortality at 48 Hrs.,Thrips [14],57.50%
same,Total No. of dead insect at 48 Hrs.,Thrips [14],57.50
same,% Corrected Mortality at 48 Hrs.,Thrips [14],52.78%
same,mortality at 1 mL or g/L,Spodoptera litura [16]; [20],63.2%
same,mortality at 1 mL or g/L,Spodoptera litura [16]; [21],65%
same,mortality at 1 mL or g/L,Thrips [17]; [22],48.6%
same,mortality at 1 mL or g/L,Thrips [17]; [23],55%
same,mortality at 1 mL or g/L,Aphid [18]; [22],61.8%
same,mortality at 1 mL or g/L,Aphid [18]; [23],67.5%
